One molecule from patent publication US20110251188A1, “ACENAPHTHO HETEROCYCLE COMPOUNDS, CYCLODEXTRIN INCLUSION COMPOUNDS AND COMPLEXES, AND USES IN THE MANUFACTURES OF BH3 PROTEIN ANALOGUE, BCL-2 FAMILY PROTEIN INHIBITORS THEREOF” (DALIAN UNIVERSITY OF TECHNOLOGY, priority 2008, published 2011) can be followed below.

Values after ≈ are worked out from the molar mass of the structure shown.

A short description of series [1]: phase solubility experiment (solubility in water before and after cyclodextrin inclusion or complexation). To be noted: thermodynamic from solid, Solubility of compounds, Table 1, compound per se, before inclusion.
Series [2] has as its system Mcl-1. As to the kind of experiment: Western blotting, compounds compared with cyclodextrin inclusion compounds and complexes, Example 24. The class given is cell-based. The following applies: Table 8; 10 μM or equivalent of inclusion compound, 24 hours. On the procedure: (§1) The cells were inoculated in a 6-well plate (2×10^5 cells/well). In the compound group, the compound 3-thiomorpholinyl-8-oxo-8H-acenaphtho[1,2-b]pyrrole-9-carbonitrile was dissolved into DMSO until the final concentration reached 10 μM. In the inclusion group, γ-cyclodextrin inclusion, which had been dissolved into water and was equivalent to 10 μM of the compound, was added thereinto. 24 hours later, the cells were washed with PBS for three times, then the cell sample was collected and cracked with 1×10^6/50 μl cell lysis solution (62.5 mM Tris-HCL pH 6.8; 2% SDS; 10% glycerol; 50 mM DTT; 0.01% bromphenol blue) at low temperature, then the solution was centrifuged and the protein supernatant was collected. The sample was boiled at 100° C. for 5 minutes and then was separated by electrophoresis on 12% SDS-PAGE and transferred. The interest protein was detected by the corresponding antibody. The expression of the interest protein in the cells was detected by horseradish peroxidase-labeled secondary antibodies in combination with ECL coloration method. […] The concentration of the protein bands in the Western figures were carried out semiquantitative analysis and normalization treatment with KODAK Gel Logic 1500 imaging system software.
For orientation: Immunoblotting shows a protein as a band on a membrane.

The test system of series [3] is Bcl-2. The series is described as above. To be noted: Table 9; 10 μM or equivalent of inclusion compound, 24 hours. The class given is cell-based. The protocol: as §1
Series [4] relates to Mcl-1. Briefly: Western blotting, inhibition (downregulation) of Mcl-1 in tumor cells, Example 23. Format: cell-based. On the procedure: (§2) The interest protein was detected by the corresponding antibody. The expression of the interest protein in the cells was detected by horseradish peroxidase-labeled secondary antibodies in combination with ECL coloration method. […] The concentration of the protein bands in the Western images were carried out semiquantitative analysis and normalization treatment with KODAK Gel Logic 1500 imaging system software.

Series [5] deals with MCF-7 cells. As to the kind of experiment: cytotoxicity depending on BAX/BAK, MTT, MCF-7 cells with or without BAX/BAK interfering plasmid. Format: cell-based.
In series [6] the target is T1, interaction between Bcl-2 and Bax (Homo sapiens, UniProt P10415).
T1 construct: expressed in transfected cells; host or cells: Hela cells
As to the kind of experiment: intracellular fluorescence polarization energy transfer (FRET), Hela cells transfected with Bcl-2-CFP and Bax-YFP. Format: cell-based. In general terms: In fluorescence polarisation assays a small probe gives low polarisation when free and higher when bound to something large.

For series [7], the system named is Bax protein. As to the kind of experiment: co-localization between Bax protein and chondriosome, Bax-YFP transfected MCF-7 cells. The class given is cell-based.
Series [8] relates to Bcl-2. As to the kind of experiment: Western blotting, inhibition (downregulation) of Bcl-2 in tumor cells, Example 23. The class given is cell-based. The protocol:
as §2

T1 sequence (P10415 whole entry): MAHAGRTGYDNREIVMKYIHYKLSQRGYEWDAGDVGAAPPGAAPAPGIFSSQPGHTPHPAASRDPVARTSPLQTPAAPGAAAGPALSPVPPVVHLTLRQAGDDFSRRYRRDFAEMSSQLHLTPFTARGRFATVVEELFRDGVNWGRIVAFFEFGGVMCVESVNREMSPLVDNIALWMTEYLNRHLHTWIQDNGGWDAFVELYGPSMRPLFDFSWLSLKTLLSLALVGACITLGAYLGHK

In series [1], `N#CC1=C2C(=NC1=O)c1c(Sc3ccc(N)cc3)ccc3c(Sc4ccc(N)cc4)ccc2c13` [3,6-di(4-aminophenylthio)-8-oxo-8 H-acenaphtho[1,2-b]pyrrole-9-carbonitrile] came in with a solubility of 0.31 µM (≈ 0.148 µg/mL). The “downregulation of Mcl-1 protein, semiquantitative analysis (band concentration, control = 1)” value in series [2] stood at 0.75; in series [4] (6 hours), 0.99; in series [4] (12 hours), 0.99; in series [4] (18 hours), 0.68; in series [4] (24 hours), 0.33. For the same molecule, the figures for the “downregulation of Bcl-2 protein, semiquantitative analysis (band concentration, control = 1)” value in series [3], in series [8] (2 hours) and in series [8] (6 hours) were 0.75, 0.72 and 0.43, respectively. Moreover, the “inhibition against Mcl-1” value in series [4] (Western blotting, tumor cells) was “had the inhibition against Bcl-2 and Mcl-1 proteins”. Also, the “dependence of cytotoxicity on BAX/BAK” value in series [5] is listed as “absolute dependence on BAX/BAK”. The “Time for which the compound interfered with the interaction between Bcl-2 and Bax” value in series [6] (goes with the concentration of E11) worked out at 2 h. In addition, the “Concentration at which the compound interfered with the interaction between Bcl-2 and Bax” value in series [6] (goes with the time of E12) was 1.0 µM. Besides, the “Time for which the compound drove the BAX to shift towards the chondriosome” value in series [7] (goes with the concentration of E14) was determined as 6 h. The “Concentration at which the compound drove the BAX to shift towards the chondriosome” value in series [7] (goes with the time of E15) stood at 5.0 µM. The “inhibition against Bcl-2” value in series [8] (Western blotting, tumor cells) was “had the inhibition against Bcl-2 and Mcl-1 proteins”.

In general, solubility refers to how much of the substance goes into solution per volume. The low end stands for a poorly soluble substance, the high end for a readily soluble substance.
